Results on six molecules are retold here after patent US20240209028A1, “CNP COMPOUNDS” (priority 2022, published 2024).

Series [1] can be described thus: Solubility of CNP compounds at pH 4.0 and pH 6.5. Format: physicochemical. The essentials:
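Supernatant peptide concentration was quantified by CAD after overnight room-temperature equilibration of incompletely dissolved samples. Nominal loading was ≥4000-5000 nmol/mL. Media were pH 4.0 sodium acetate 5 mM/glycerol 250 mM, or pH 6.5 sodium phosphate 8 mM/glycerol 23 mg/mL reached by stepwise NaOH addition.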

The nature of series [2]: PK of CNP compounds after i.v. and s.c. administration to rats. The note with it: male, Sprague Dawley, in vivo, iv, rat, i.v., about 100 nmol/kg; for clearance: read-out: Cl (L/hr/kg), i.v. administration (converted); for half-life: read-out: T½ (hr), i.v. administration (converted). The essentials:
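Plasma exposure was quantified by protein precipitation and turboflow LC-MS/MS in SRM mode. Rats received either 100 nmol/kg intravenously or 300 nmol/kg subcutaneously, with sublingual blood taken at baseline and at points up to 72 h. Per-animal NCA gave clearance as Dose/AUCinf, and results are averaged over 4-6 animals.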

The mark [3] stands for this setting: 5 mM sodium acetate, 250 mM glycerol, pH 4.0, room temperature, read-out: Solubility at pH 4.0.
The mark [4] stands for this setting: 8 mM sodium phosphate, 23 mg/mL glycerol, pH 6.5, room temperature, read-out: Solubility at pH 6.5.

Values after ≈ are worked out from the molar mass of the structure shown. Read-outs that look alike come from different tables or passages of the source. Starred links: 1 amine or outer side, 2 acyl side, 3 side chain; linkers in the order of their positions; H or OH if unused. Positions of bridges follow the written chain, without caps; N, C: chain ends. Residues, ends and D or L forms follow the SMILES beside them. *: point of attachment. C18 diacid = O=C(O)CCCCCCCCCCCCCCCCC(=O)*; γGlu = O=C(O)[C@H](CCC(=O)[*:2])N[*:1]; AEEA = NCCOCCOCC(=O)O

Usually solubility stands for the dissolved amount per volume that the medium holds. Regarding `CC[C@H](C)[C@@H]1NC(=O)[C@H](CCCNC(=N)N)NC(=O)[C@H](CC(=O)O)NC(=O)[C@H](CC(C)C)NC(=O)[C@@H]2CCCN2C(=O)[C@H](CC(C)C)NC(=O)CNC(=O)[C@H](Cc2ccccc2)NC(=O)[C@@H](NC(=O)CNC(=O)[C@H](CO)NC(=O)[C@H](CO)NC(=O)[C@@H](NC(=O)CNC(=O)[C@@H](NC(=O)[C@H](Cc2c[nH]cn2)NC(=O)[C@H](CCC(N)=O)NC(=O)[C@H](C)NC(=O)CNC(=O)[C@H](Cc2c[nH]cn2)NC(=O)[C@H](Cc2ccc(O)cc2)NC(=O)[C@H](CCCCN)NC(=O)[C@H](CCCNC(=N)N)NC(=O)[C@H](C)NC(=O)COCCOCCNC(=O)COCCOCCNC(=O)CC[C@H](NC(=O)CCCCCCCCCCCCCCCCC(=O)O)C(=O)O)[C@@H](C)O)C(C)C)CSSC[C@@H](C(=O)O)NC(=O)CNC(=O)[C@H](CC(C)C)NC(=O)CNC(=O)[C@H](CO)NC(=O)[C@H](CC(C)C)NC(=O)[C@H](CO)NC(=O)CNC1=O` [compound 1351] ({C18 diacid-γGlu-AEEA-AEEA}-ARKYHGAQHTGVSSGCFGLPLDRIGSLSGLGC-OH; disulfide 16-32), the solubility in series [1] (setting [3]) came to 6.17 mM (≈ 24.4 mg/mL). In addition, in series [2], the clearance is 0.0093 L/h/kg and the half-life is 6.07 h.
Take `CC[C@H](C)[C@@H]1NC(=O)[C@H](CCCNC(=N)N)NC(=O)[C@H](CC(=O)O)NC(=O)[C@H](CC(C)C)NC(=O)[C@@H]2CCCN2C(=O)[C@H](CC(C)C)NC(=O)CNC(=O)[C@H](Cc2ccccc2)NC(=O)[C@@H](NC(=O)CNC(=O)[C@H](CO)NC(=O)[C@H](CO)NC(=O)[C@@H](NC(=O)CNC(=O)[C@@H](NC(=O)[C@H](CCCCN)NC(=O)[C@H](CCC(N)=O)NC(=O)[C@H](C)NC(=O)CNC(=O)[C@H](Cc2c[nH]cn2)NC(=O)[C@H](Cc2ccc(O)cc2)NC(=O)COCCOCCNC(=O)COCCOCCNC(=O)COCCOCCNC(=O)CC[C@H](NC(=O)CCCCCCCCCCCCCCCCC(=O)O)C(=O)O)[C@@H](C)O)C(C)C)CSSC[C@@H](C(=O)O)NC(=O)CNC(=O)[C@H](CC(C)C)NC(=O)CNC(=O)[C@H](CO)NC(=O)[C@H](CC(C)C)NC(=O)[C@H](CO)NC(=O)CNC1=O` [compound 1352] ({C18 diacid-γGlu-AEEA-AEEA-AEEA}-YHGAQKTGVSSGCFGLPLDRIGSLSGLGC-OH; disulfide 13-29): in series [1] (setting [4]), the solubility worked out at 7.73 mM (≈ 28.9 mg/mL). In series [2], the clearance was 0.0102 L/h/kg and the half-life was 6.34 h.
In the case of `CC[C@H](C)[C@@H]1NC(=O)[C@H](CCCNC(=N)N)NC(=O)[C@H](CC(=O)O)NC(=O)[C@H](CC(C)C)NC(=O)[C@@H]2CCCN2C(=O)[C@H](CC(C)C)NC(=O)CNC(=O)[C@H](Cc2ccccc2)NC(=O)[C@@H](NC(=O)CNC(=O)[C@H](CO)NC(=O)[C@H](CO)NC(=O)[C@@H](NC(=O)CNC(=O)[C@@H](NC(=O)[C@H](CCCCN)NC(=O)[C@H](CCC(N)=O)NC(=O)[C@H](C)NC(=O)CNC(=O)[C@H](Cc2c[nH]cn2)NC(=O)[C@H](Cc2ccc(O)cc2)NC(=O)[C@H](CCCCN)NC(=O)[C@H](CCCNC(=N)N)NC(=O)[C@H](C)NC(=O)COCCOCCNC(=O)COCCOCCNC(=O)CC[C@H](NC(=O)CC[C@H](NC(=O)CCCCCCCCCCCCCCCCC(=O)O)C(=O)O)C(=O)O)[C@@H](C)O)C(C)C)CSSC[C@@H](C(=O)O)NC(=O)CNC(=O)[C@H](CC(C)C)NC(=O)CNC(=O)[C@H](CO)NC(=O)[C@H](CC(C)C)NC(=O)[C@H](CO)NC(=O)CNC1=O` [compound 1354] ({C18 diacid-γGlu-γGlu-AEEA-AEEA}-ARKYHGAQKTGVSSGCFGLPLDRIGSLSGLGC-OH; disulfide 16-32), the solubility in series [1] (setting [4]) was 0.44 mM (≈ 1.8 mg/mL). In series [2], the clearance is 0.00652 L/h/kg and the half-life is 7.56 h.
On to `CC[C@H](C)[C@@H]1NC(=O)[C@H](CCCNC(=N)N)NC(=O)[C@H](CC(=O)O)NC(=O)[C@H](CC(C)C)NC(=O)[C@@H]2CCCN2C(=O)[C@H](CC(C)C)NC(=O)CNC(=O)[C@H](Cc2ccccc2)NC(=O)[C@@H](NC(=O)CNC(=O)[C@H](CCCCN)NC(=O)[C@H](CO)NC(=O)[C@H](CC(C)C)NC(=O)CNC(=O)[C@H](CCCCN)NC(=O)[C@H](CCCCN)NC(=O)[C@H](CCC(N)=O)NC(=O)[C@H](C)NC(=O)CNC(=O)[C@H](CCC(=O)O)NC(=O)[C@H](Cc2ccc(O)cc2)NC(=O)COCCOCCNC(=O)COCCOCCNC(=O)COCCOCCNC(=O)COCCOCCNC(=O)CC[C@H](NC(=O)CCCCCCCCCCCCCCCCC(=O)O)C(=O)O)CSSC[C@@H](C(=O)O)NC(=O)CNC(=O)[C@H](CC(C)C)NC(=O)CNC(=O)[C@H](CO)NC(=O)[C@H](CC(C)C)NC(=O)[C@H](CO)NC(=O)CNC1=O` [compound 1375] ({C18 diacid-γGlu-AEEA-AEEA-AEEA-AEEA}-YEGAQKKGLSKGCFGLPLDRIGSLSGLGC-OH; disulfide 13-29; C-terminus assumed), for which the solubility in series [1] (setting [4]) came to 3.13 mM (≈ 12.4 mg/mL). In addition, in series [2], the clearance was 0.0057 L/h/kg and the half-life is 9.66 h.
Consider `CC[C@H](C)[C@@H]1NC(=O)[C@H](CCCNC(=N)N)NC(=O)[C@H](CC(=O)O)NC(=O)[C@H](CC(C)C)NC(=O)[C@@H]2CCCN2C(=O)[C@H](CC(C)C)NC(=O)CNC(=O)[C@H](Cc2ccccc2)NC(=O)[C@@H](NC(=O)CNC(=O)[C@H](CCC(N)=O)NC(=O)[C@H](CO)NC(=O)[C@H](CC(C)C)NC(=O)CNC(=O)[C@H](CCCCN)NC(=O)[C@H](CCCCN)NC(=O)[C@H](CCC(N)=O)NC(=O)[C@H](C)NC(=O)CNC(=O)[C@H](CCCCN)NC(=O)[C@H](Cc2ccc(O)cc2)NC(=O)COCCOCCNC(=O)COCCOCCNC(=O)COCCOCCNC(=O)COCCOCCNC(=O)CC[C@H](NC(=O)CC[C@H](NC(=O)CC[C@H](NC(=O)CCCCCCCCCCCCCCCCC(=O)O)C(=O)O)C(=O)O)C(=O)O)CSSC[C@@H](C(=O)O)NC(=O)CNC(=O)[C@H](CC(C)C)NC(=O)CNC(=O)[C@H](CO)NC(=O)[C@H](CC(C)C)NC(=O)[C@H](CO)NC(=O)CNC1=O` [compound 9480] ({C18 diacid-γGlu-γGlu-γGlu-AEEA-AEEA-AEEA-AEEA}-YKGAQKKGLSQGCFGLPLDRIGSLSGLGC-OH; disulfide 13-29), for which the solubility in series [1] (setting [3]) worked out at 0.023 mM (≈ 0.097 mg/mL); in series [1] (setting [4]) it was 6.17 mM (≈ 26 mg/mL).
In turn, `CC[C@H](C)[C@@H]1NC(=O)[C@H](CCCNC(=N)N)NC(=O)[C@H](CCC(=O)O)NC(=O)[C@H](CC(C)C)NC(=O)[C@@H]2CCCN2C(=O)[C@H](CC(C)C)NC(=O)CNC(=O)[C@H](Cc2ccccc2)NC(=O)[C@@H](NC(=O)CNC(=O)[C@H](CO)NC(=O)[C@H](CO)NC(=O)[C@H](CC(C)C)NC(=O)CNC(=O)[C@H](CCCCN)NC(=O)[C@H](CCCCN)NC(=O)[C@H](CCC(N)=O)NC(=O)[C@H](C)NC(=O)CNC(=O)[C@H](CCCCN)NC(=O)[C@H](Cc2ccc(O)cc2)NC(=O)[C@H](CCCCN)NC(=O)[C@H](CCCNC(=N)N)NC(=O)[C@H](C)NC(=O)[C@H](CCC(N)=O)NC(=O)[C@@H]2CCCN2C(=O)[C@H](Cc2c[nH]cn2)NC(=O)[C@H](CCC(=O)O)NC(=O)[C@H](CCC(N)=O)NC(=O)CC[C@H](NC(=O)CC[C@H](NC(=O)CC[C@H](NC(=O)CC[C@H](NC(=O)CCCCCCCCCCCCCCCCC(=O)O)C(=O)O)C(=O)O)C(=O)O)C(=O)O)CSSC[C@@H](C(=O)O)NC(=O)CNC(=O)[C@H](CC(C)C)NC(=O)CNC(=O)[C@H](CO)NC(=O)[C@H](CC(C)C)NC(=O)[C@H](CO)NC(=O)CNC1=O` [compound 9483] ({C18 diacid-γGlu-γGlu-γGlu-γGlu}-QEHPQARKYKGAQKKGLSSGCFGLPLERIGSLSGLGC-OH; disulfide 21-37) displayed a solubility in series [1] (pH 4) of 4.96 mM (≈ 23.4 mg/mL).
